Structures can show the parent of a compound that is named as a salt.

Here are results for 17 molecules from patent US9181259B2 (LEO PHARMA A/S, priority 2012, dated 2015).

Data set [1] addresses T1, NK1 receptor (Homo sapiens, UniProt P25103).
T1 construct: Measurement of NK1 Receptor Mediated Intracellular [Ca^2+]; Mobilization in U251 MG Cells Using FLIPR; endogenous in cells; host or cells: U251 MG cells
Description: NK1 receptor mediated intracellular [Ca2+] mobilization in U251 MG cells using FLIPR. It counts as cell-based. To be noted: antagonist potency against Substance P (EC80), normalized to 100 nM Aprepitant, read-out: U251MG (FLIPR pIC50) (converted). The procedure: Measurement of NK1 Receptor Mediated Intracellular [Ca^2+] Mobilization in U251 MG Cells Using FLIPR
U251 MG cells were seeded into black walled clear-bottom 384-well plates (Greiner Bio-One GmbH, Frickenhausen, Germany) at a density of 15,000 cells/well in 50 μl culture medium and cultured overnight in a 37° C. 5% CO2 incubator. The cells were then loaded with the calcium sensitive dye Fluo-4 (Invitrogen) at 1 μM in buffer, containing 0.04%
Pluronic F-127 (Sigma-Aldrich), and 2.5 mM probenecid (Sigma-Aldrich) for 60 min in a humidified atmosphere of 5% CO2. Thereafter, cells were washed three times in washing buffer containing 20 mM HEPES and 2.5 mM probenecid pH 7.3. Serial dilutions of test compounds in assay buffer containing 2% dimethyl sulfoxide (final concentration in the cell plate is 0.5% DMSO) and/or agonist were then automatically pipetted into each test well, and the peak fluorescence intensity was recorded (lex, 488 nm; lem, 540 nm) by the FLIPR instrument (Molecular Devices) for approximately 5 min. To measure antagonist potency, cell plates were first incubated with the test compound and intracellular fluorescence recorded for 5 minutes to check a potential agonist effect of the test compound. Cell plates were quickly removed from the FLIPR instrument and incubated for additional 10 minutes at 37° C. before being moved back to the FLIPR instrument for Substance P (EC80) addition. The response was measured as the peak relative fluorescence change after agonist addition.
The IC50 value is defined as the molar concentration of a test compound that produces a response midway between the fitted top and the fitted bottom. pIC50=−log IC50
Formula is listed as follows: Fit(% Effect calculated)=(A+((B−A)/(1+((C/X)^D)))) • A: bottom value • B: top value • C: […] • D: Hill slope coefficient
Ref: Sullivan E, Tucker E M, and Dale I L. Measurement of [Ca^2+] using the Fluorometric Imaging Plate Reader (FLIPR). Methods Mol Biol 114:125-133, 1999.
Compounds of the present invention were tested according to example 120.

Data set [2] can be described thus: Hepatic intrinsic clearance following incubation in human liver microsomes. The class given is in vitro ADME. To be noted: NADPH regenerating system, 0-30 min, 37 °C. The procedure:
Hepatic Extraction Ratio from Hepatic Intrinsic Clearance Following Incubation in Human Liver Microsomes
The general procedure consists of an automated incubation system and LC-MS/MS analysis with human liver microsomes. Human liver microsomes are thawed rapidly in a waterbath at 37° C. and kept on ice until use. The human liver microsomes are diluted with 50 mM potassium phosphate buffer pH 7.4 to a protein concentration of 0.55 mg/mL. Test compounds and positive controls (Verapamil and Dextromethorphan, positive controls for CYP3A4 for CYP2D6 isoforms, respectively) are dissolved in methanol (or other appropriate solvent, if necessary) in order to obtain a 5 mM solution which is further diluted to the concentration of 50 μM. The stock solutions are prepared immediately before the test.
5 μL of 50 μM test compounds and controls are added to 445 μL-of the 0.55 mg/mL microsomes solution and the incubation mixture are pre-warmed at 37° C. for 5 minutes.
The incubation reactions are initiated by adding 50 μL of pre-warmed NADPH regenerating system to the incubation mixtures. 50 μL-aliquots will be taken from the incubation mixtures at: 0, 3, 6, 9, 15 and 30 minutes and the reactions are stopped by adding 100 μL of ACN containing Rolipram, used as generic Internal Standard (1S). Samples are then diluted with 120 μL of Milli-Q water and centrifuged at 3000 rpm for 10 minutes, prior the LC-MS/MS analysis.
The integrated peak areas for test compounds at the selected time points are divided by the respective peak areas of the IS and the percent of parent remaining is calculated by normalizing the peak area ratio of parent to IS at 0 min. Observed rate constant (kobs) for parent degradation is calculated by determining the slope of the line of the graph of the natural log of percentage parent remaining versus time of incubation. From the rate of depletion (min-1) and volume of the incubation (mL), clearance is estimated. This is scaled for the protein in the incubation relative to that in the intact liver, for all species (mL/min/g liver).
Values for the Human in vitro Clint are expressed as mL/min/g liver.
Assuming a liver weight of 25.7 g/kg and a liver blood flow of 20.7 mL/min/kg, the hepatic extraction ratio, Eh, can be derived from the Human in vitro Clint:
E.g. a Human in vitro Clint of 2.4 mL/min/g liver corresponds to a hepatic extraction ratio of 75%.
Some compounds of the present invention were tested according to example 121.
(Microsomes from liver hold many membrane-bound enzymes, among them those of drug oxidation.)

T1 sequence (P25103 whole entry): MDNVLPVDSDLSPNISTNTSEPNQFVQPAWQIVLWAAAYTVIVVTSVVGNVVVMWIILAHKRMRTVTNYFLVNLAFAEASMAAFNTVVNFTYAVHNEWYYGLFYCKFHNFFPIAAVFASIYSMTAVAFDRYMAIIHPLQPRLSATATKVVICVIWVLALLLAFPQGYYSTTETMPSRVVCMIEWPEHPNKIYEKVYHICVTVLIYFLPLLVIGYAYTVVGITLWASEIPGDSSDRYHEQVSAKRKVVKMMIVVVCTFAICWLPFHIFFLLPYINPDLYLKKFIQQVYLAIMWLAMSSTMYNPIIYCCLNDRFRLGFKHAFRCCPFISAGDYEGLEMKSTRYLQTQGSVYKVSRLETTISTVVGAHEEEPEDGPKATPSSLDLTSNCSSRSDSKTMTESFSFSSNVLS

With `Cc1ccccc1C1C2CCCN2CCN1C(=O)N(C)[C@H](C)c1cc(C(F)(F)F)cc(C(F)(F)F)c1` (single isomer, unassigned) [Compound 63], the IC50 in data set [1] is 0.324 nM. Further, the “Human in vitro Clint (mL/min/g liver)” value in data set [2] worked out at 11 mL/min/g liver.

As to `Cc1ccccc1C1C2CC(CCO)(CCO)C(=O)N2CCN1C(=O)N(C)Cc1cc(C(F)(F)F)cc(C(F)(F)F)c1` (single isomer, unassigned) [Compound 43, N-{[3,5-bis(trifluoromethyl)phenyl]methyl}-7,7-bis(2-hydroxyethyl)-N-methyl-1-(2-methylphenyl)-6-oxo-octahydropyrrolo[1,2-a]piperazine-2-carboxamide], in data set [1], the IC50 is 0.525 nM. Moreover, the “Human in vitro Clint (mL/min/g liver)” value in data set [2] is 3.7 mL/min/g liver.

`Cc1ccccc1[C@H]1[C@@H]2CC(CCO)(CCO)C(=O)N2CCN1C(=O)N(C)[C@@H](C)c1cc(C(F)(F)F)cc(C(F)(F)F)c1` [Compound 99, (1S,8aS)-N-((S)-1-(3,5-bis(trifluoromethyl)phenyl)ethyl)-7,7-bis(2-hydroxyethyl)-N-methyl-6-oxo-1-o-tolylhexahydropyrrolo[1,2-a]pyrazine-2(1H)-carboxamide]: the IC50 in data set [1] is 0.166 nM. For the same molecule, the “Human in vitro Clint (mL/min/g liver)” value in data set [2] was determined as 5.4 mL/min/g liver.

In the case of `Cc1ccccc1[C@H]1[C@@H]2CC(CCO)(CCO)C(=O)N2CCN1C(=O)N(C)[C@@H](C)c1cc(Cl)cc(C(F)(F)F)c1` [Compound 90, (1S,8aS)-N-((S)-1-(3-chloro-5-(trifluoromethyl)phenyl)ethyl)-7,7-bis(2-hydroxyethyl)-N-methyl-6-oxo-1-o-tolylhexahydropyrrolo[1,2-a]pyrazine-2(1H)-carboxamide], the IC50 in data set [1] was 0.0398 nM. In data set [2], the “Human in vitro Clint (mL/min/g liver)” value is 7.6 mL/min/g liver.

With `Cc1ccccc1[C@H]1[C@@H]2CC(CCO)(CCO)C(=O)N2CCN1C(=O)N(C)Cc1cc(Cl)cc(C(F)(F)F)c1` [Compound 79, (1S,8aS)-N-(3-chloro-5-(trifluoromethyl)benzyl)-7,7-bis(2-hydroxyethyl)-N-methyl-6-oxo-1-o-tolylhexahydropyrrolo[1,2-a]pyrazine-2(1H)-carboxamide], the IC50 in data set [1] was 0.105 nM. The “Human in vitro Clint (mL/min/g liver)” value in data set [2] amounted to 14 mL/min/g liver.

In the case of `Cc1cc([C@@H](C)N(C)C(=O)N2CCN3C(=O)C(CCO)(CCO)C[C@H]3[C@@H]2c2ccccc2C)cc(C(F)(F)F)c1` [Compound 85, (1S,8aS)-7,7-bis(2-hydroxyethyl)-N-methyl-N-((R)-1-(3-methyl-5-(trifluoromethyl)phenyl)ethyl)-6-oxo-1-o-tolylhexahydropyrrolo[1,2-a]pyrazine-2(1H)-carboxamide], the IC50 in data set [1] is 0.0794 nM. In addition, the “Human in vitro Clint (mL/min/g liver)” value in data set [2] was found to be 17 mL/min/g liver.

`Cc1ccccc1[C@H]1[C@@H]2CC(CCO)(CCO)C(=O)N2CCN1C(=O)N(C)[C@H](C)c1cc(C(F)F)cc(C(F)(F)F)c1` [Compound 98, (1S,8aS)-N-((R)-1-(3-(difluoromethyl)-5-(trifluoromethyl)phenyl)ethyl)-7,7-bis(2-hydroxyethyl)-N-methyl-6-oxo-1-o-tolylhexahydropyrrolo[1,2-a]pyrazine-2(1H)-carboxamide]: the IC50 in data set [1] was 0.117 nM. For the same molecule, in data set [2], the “Human in vitro Clint (mL/min/g liver)” value came to 4.0 mL/min/g liver.

`Cc1ccccc1[C@H]1[C@@H]2CC3(CCN(C)CC3)C(=O)N2CCN1C(=O)N(C)[C@H](C)c1cc(C(F)(F)F)cc(C(F)(F)F)c1` [Compound 105, (1′S,8a′S)-N-((R)-1-(3,5-bis(trifluoromethyl)phenyl)ethyl)-N,1-dimethyl-6′-oxo-1′-o-tolyltetrahydro-1′H-spiro[piperidine-4,7′-pyrrolo[1,2-a]pyrazine]-2′(6′H)-carboxamide, formic acid salt]: the IC50 in data set [1] was 0.24 nM. Besides, in data set [2], the “Human in vitro Clint (mL/min/g liver)” value worked out at 1.2 mL/min/g liver.

`CCc1cc([C@@H](C)N(C)C(=O)N2CCN3C(=O)C(CCO)(CCO)C[C@H]3[C@@H]2c2ccccc2C)cc(C(F)(F)F)c1` [Compound 110, (1S,8aS)-N-((R)-1-(3-ethyl-5-(trifluoromethyl)phenyl)ethyl)-7,7-bis(2-hydroxyethyl)-N-methyl-6-oxo-1-o-tolylhexahydropyrrolo[1,2-a]pyrazine-2(1H)-carboxamide]: the IC50 in data set [1] is 0.0631 nM. Also, the “Human in vitro Clint (mL/min/g liver)” value in data set [2] came to 13 mL/min/g liver.

As for `Cc1ccccc1[C@H]1[C@@H]2CC(CCO)(CCO)C(=O)N2CCN1C(=O)N(C)Cc1cc(F)cc(C(F)(F)F)c1` [Compound 76, (1S,8aS)-N-(3-fluoro-5-(trifluoromethyl)benzyl)-7,7-bis(2-hydroxyethyl)-N-methyl-6-oxo-1-o-tolylhexahydropyrrolo[1,2-a]pyrazine-2(1H)-carboxamide], the IC50 in data set [1] was 0.148 nM. Besides, the “Human in vitro Clint (mL/min/g liver)” value in data set [2] stood at 12 mL/min/g liver.

Turning to `Cc1ccccc1C1C2CCC(=O)N2CCN1C(=O)N(C)Cc1cc(C(F)(F)F)cc(C(F)(F)F)c1` (single isomer, unassigned) [Compound 17, N-{[3,5-bis(trifluoromethyl)phenyl]methyl}-N-methyl-1-(2-methylphenyl)-6-oxo-octahydropyrrolo[1,2-a]piperazine-2-carboxamide], the IC50 in data set [1] was 28.2 nM.

In the case of `Cc1ccccc1C1C2CC(CCO)C(=O)N2CCN1C(=O)N(C)C(CCO)c1cc(C(F)(F)F)cc(C(F)(F)F)c1` (racemic) [Compound 33, N-{1-[3,5-bis(trifluoromethyl)phenyl]-3-hydroxypropyl}-7-(2-hydroxyethyl)-N-methyl-1-(2-methylphenyl)-6-oxo-octahydropyrrolo[1,2-a]piperazine-2-carboxamide], in data set [1], the IC50 is 0.158 nM.

As for `Cc1ccccc1C1C2CC(CO)CN2CCN1C(=O)N(C)[C@H](C)c1cc(C(F)(F)F)cc(C(F)(F)F)c1` (single isomer, unassigned) [Compound 67], the IC50 in data set [1] is 0.204 nM.

As for `Cc1ccccc1C1C2CCC(=O)N2CCN1C(=O)N(C)Cc1cccc(C(F)(F)F)c1` (single isomer, unassigned) [Compound 6, N-methyl-1-(2-methylphenyl)-6-oxo-N-{[3-(trifluoromethyl)phenyl]methyl}-Octahydropyrrolo[1,2-a]piperazine-2-carboxamide], the IC50 in data set [1] is greater than 100 nM.

As to `Cc1ccccc1C1C2CCCN2CCN1C(=O)N(C)Cc1cc(C(F)(F)F)cc(C(F)(F)F)c1` (single isomer, unassigned) [Compound 62, N-{[3,5-bis(trifluoromethyl)phenyl]methyl}-N-methyl-1-(2-methylphenyl)-octahydropyrrolo[1,2-a]piperazine-2-carboxamide], the IC50 in data set [1] is 0.955 nM.

Take `Cc1ccccc1C1C2CC(CN3CCOCC3)C(=O)N2CCN1C(=O)N(C)[C@H](C)c1cc(C(F)(F)F)cc(C(F)(F)F)c1` (single isomer, unassigned) [Compound 74]: the IC50 in data set [1] was 0.0891 nM.

`Cc1ccccc1C1C2CCCN2CCN1C(=O)N(C)Cc1cc(C(F)(F)F)cc(C(F)(F)F)c1` (racemic) [Compound 24, N-{[3,5-bis(trifluoromethyl)phenyl]methyl}-N-methyl-1-(2-methylphenyl)-octahydropyrrolo[1,2-a]piperazine-2-carboxamide]: the IC50 in data set [1] was 1.35 nM.
